Structures are written as SMILES. ≈ marks a conversion by molar mass, not a printed value. Calls of active or inactive are those of the source. No cut-off for these calls is given here. *1 amine or outer side, *2 acyl side, *3 side chain or, on linkers, in order; H or OH if unused. Where a SMILES comes first, the peptide text is derived from it. [ ]: non-standard residue; d: D form. ξ: configuration not given here. Phe(4-NO2) = N[C@@H](Cc1ccc([N+](=O)[O-])cc1)C(=O)O; Pro(3ξ,4ξ-(CH2)4) = O=C(O)[C@H]1NCC2CCCCC21; X1 = O=C([C@H]1C2CCCCC2CN1[*:1])[*:2]; Tic = O=C(O)[C@@H]1Cc2ccccc2CN1; dTic = O=C(O)[C@H]1Cc2ccccc2CN1; dOrn = NCCC[C@@H](N)C(=O)O; Dab = NCC[C@H](N)C(=O)O; βAla = NCCC(=O)O Some results are limits rather than exact numbers.

The test system of one assay is Klebsiella pneumoniae. Nature of the assay: Antimicrobial activity against Klebsiella pneumoniae BAMC 07-18. The assay is classed as functional. The note with it: for MIC: Klebsiella pneumoniae, BAMC 07-18.
The test system of a further assay is Pseudomonas aeruginosa. Nature of the assay: Antimicrobial activity against Pseudomonas aeruginosa PAO1. As to conditions: for MIC: Pseudomonas aeruginosa, PAO1. The class given is functional.
The test system of assay [1] is Lipopolysaccharide (LPS). The assay is described as follows: Binding affinity to SUV consisting Klebsiella pneumoniae lipopolysaccharide by CD spectroscopy.
The subject of assay [2] is Lipopolysaccharide (LPS). The assay is described as follows: Binding affinity to SUV consisting Pseudomonas aeruginosa lipopolysaccharide by CD spectroscopy.
Assay [3] relates to Lipopolysaccharide (LPS). Nature of the assay: Binding affinity to Klebsiella pneumoniae lipopolysaccharide assessed as normalized peak area of proton resonances in region of 1.5 to 0.5 ppm by […] relative to untreated control.
In assay [4] the test system is Lipopolysaccharide (LPS). The assay is described as follows: Binding affinity to Pseudomonas aeruginosa lipopolysaccharide assessed as normalized peak area of proton resonances in region of 1.5 to 0.5 ppm by […] relative to untreated control.
In assay [5] the test system is Lipopolysaccharide (LPS). Nature of the assay: Binding affinity to Pseudomonas aeruginosa lipopolysaccharide at 0.1 mg by [1H] NMR spectroscopy.
Assay [6] relates to Lipopolysaccharide (LPS). Nature of the assay: Binding affinity to Klebsiella pneumoniae lipopolysaccharide at 0.1 mg by [1H] NMR spectroscopy.
Assay [7] relates to Lipopolysaccharide (LPS). Nature of the assay: Binding affinity to Pseudomonas aeruginosa lipopolysaccharide incorporated into 59% POPC/20% POPE/21% POPG liposomes by Far-UV circular dichroism spectroscopy. As to conditions: Liposome. A general note: Circular dichroism is widely used to follow secondary structure.
Assay [8] has as its system Lipopolysaccharide (LPS). Nature of the assay: Binding affinity to Klebsiella pneumoniae lipopolysaccharide incorporated 75% POPC/20% POPE/5% POPG liposome by Far-UV circular dichroism spectroscopy.
The test system of assay [9] is Lipopolysaccharide (LPS). Nature of the assay: Binding affinity to Pseudomonas aeruginosa lipopolysaccharide incorporated into 80% POPC/20% POPG by Far-UV circular dichroism spectroscopy.
For assay [10], the system named is Lipopolysaccharide (LPS). The assay is described as follows: Binding affinity to Pseudomonas aeruginosa lipopolysaccharide incorporated into 59% POPC/20% POPE/21% POPG by Far-UV circular dichroism spectroscopy.
For assay [11], the system named is Lipopolysaccharide (LPS). The assay is described as follows: Binding affinity to Klebsiella pneumoniae lipopolysaccharide incorporated into 75% POPC/20% POPE/5% POPG liposomes by Far-UV circular dichroism spectroscopy. As to conditions: Liposome.
Assay [12] deals with Lipopolysaccharide (LPS). The assay is described as follows: Binding affinity to Klebsiella pneumoniae lipopolysaccharide incorporated into phospholipid 75% POPC/20% POPE/5% POPG liposomes by Far-UV circular dichroism spectroscopy.

On to `CC(=O)NCC(=O)N[C@@H](Cc1ccccc1)C(=O)N1Cc2ccccc2C[C@H]1C(=O)N1CC2CCCCC2[C@H]1C(=O)NCC(=O)N[C@@H](CCCCN)C(=O)N1Cc2ccccc2C[C@H]1C(=O)N1CC2CCCCC2[C@H]1C(=O)NCC(=O)N[C@@H](Cc1ccccc1)C(=O)N1Cc2ccccc2C[C@H]1C(=O)N1CC2CCCCC2[C@H]1C(=O)NCC(=O)N[C@@H](CCCCN)C(=O)N1Cc2ccccc2C[C@H]1C(=O)N[C@@H](CCCCN)C(=O)N[C@@H](CCCCN)C(=O)N[C@@H](CCCCN)C(=O)N[C@@H](CCCCN)C(N)=O` (stereo partly drawn) (Ac-GF[Tic][Pro(3ξ,4ξ-(CH2)4)]GK[Tic][Pro(3ξ,4ξ-(CH2)4)]GF[Tic][Pro(3ξ,4ξ-(CH2)4)]GK[Tic]KKKK-NH2), for which the MBC in the assay with Klebsiella pneumoniae and in the assay with Pseudomonas aeruginosa was 40 µM (≈ 97.6 µg/mL) each time. For the same compound, the MIC against Klebsiella pneumoniae and in the assay with Pseudomonas aeruginosa was 40 µM (≈ 97.6 µg/mL) in each case. Besides, the outcome in the assay on Lipopolysaccharide (LPS) [1], in the assay on Lipopolysaccharide (LPS) [2], in the assay on Lipopolysaccharide (LPS) [5], in the assay with Lipopolysaccharide (LPS) [6], with Lipopolysaccharide (LPS) [7] and in the assay on Lipopolysaccharide (LPS) [8] was Active. The outcome in the assay with Lipopolysaccharide (LPS) [9], in the assay on Lipopolysaccharide (LPS) [10], in the assay on Lipopolysaccharide (LPS) [11] and with Lipopolysaccharide (LPS) [12] was Active. Besides, the Activity amounted to 81% with Lipopolysaccharide (LPS) [3] and 33% with Lipopolysaccharide (LPS) [4].
For the compound `CC(=O)NCC(=O)N[C@@H](Cc1ccccc1)C(=O)N1Cc2ccccc2C[C@H]1C(=O)N1CC2CCCCC2[C@H]1C(=O)NCC(=O)N[C@@H](CCCNC(=N)N)C(=O)N1Cc2ccccc2C[C@H]1C(=O)N1CC2CCCCC2[C@H]1C(=O)NCC(=O)N[C@@H](Cc1ccccc1)C(=O)N1Cc2ccccc2C[C@H]1C(=O)N1CC2CCCCC2[C@H]1C(=O)NCC(=O)N[C@@H](CCCNC(=N)N)C(=O)N1Cc2ccccc2C[C@H]1C(=O)N[C@@H](CCCNC(=N)N)C(=O)N[C@@H](CCCNC(=N)N)C(=O)N[C@@H](CCCNC(=N)N)C(=O)N[C@@H](CCCNC(=N)N)C(N)=O` (stereo partly drawn) (Ac-GF[Tic][Pro(3ξ,4ξ-(CH2)4)]GR[Tic][Pro(3ξ,4ξ-(CH2)4)]GF[Tic][Pro(3ξ,4ξ-(CH2)4)]GR[Tic]RRRR-NH2), the MBC against Klebsiella pneumoniae was 38.4 µM (≈ 100 µg/mL); against Pseudomonas aeruginosa, greater than 100 µM. The MIC in the assay on Klebsiella pneumoniae is 19.1 µM (≈ 49.8 µg/mL); against Pseudomonas aeruginosa, 38.4 µM (≈ 100 µg/mL). The outcome in the assay with Lipopolysaccharide (LPS) [1], with Lipopolysaccharide (LPS) [2], in the assay on Lipopolysaccharide (LPS) [5], with Lipopolysaccharide (LPS) [6], with Lipopolysaccharide (LPS) [7] and in the assay on Lipopolysaccharide (LPS) [8] was Active. Besides, the outcome in the assay on Lipopolysaccharide (LPS) [9], in the assay on Lipopolysaccharide (LPS) [10], in the assay with Lipopolysaccharide (LPS) [11] and in the assay with Lipopolysaccharide (LPS) [12] was Active. Also, the Activity in the assay on Lipopolysaccharide (LPS) [3] was found to be 81%; in the assay on Lipopolysaccharide (LPS) [4] it was 39%.
On to `CC(=O)NCC(=O)N[C@@H](Cc1ccccc1)C(=O)N1Cc2ccccc2C[C@H]1C(=O)N1CC2CCCCC2[C@H]1C(=O)NCC(=O)N[C@@H](CCN)C(=O)N1Cc2ccccc2C[C@H]1C(=O)N1CC2CCCCC2[C@H]1C(=O)NCC(=O)N[C@@H](Cc1ccccc1)C(=O)N1Cc2ccccc2C[C@H]1C(=O)N1CC2CCCCC2[C@H]1C(=O)NCC(=O)N[C@@H](CCN)C(=O)N1Cc2ccccc2C[C@H]1C(=O)N[C@@H](CCN)C(=O)N[C@@H](CCN)C(=O)N[C@@H](CCN)C(=O)N[C@@H](CCN)C(N)=O` (stereo partly drawn) (Ac-GF[Tic][Pro(3ξ,4ξ-(CH2)4)]G[Dab][Tic][Pro(3ξ,4ξ-(CH2)4)]GF[Tic][Pro(3ξ,4ξ-(CH2)4)]G[Dab][Tic][Dab][Dab][Dab][Dab]-NH2), for which the minimum bactericidal concentration (MBC) worked out at 5.5 µM (≈ 12.5 µg/mL) against Klebsiella pneumoniae and 11 µM (≈ 25 µg/mL) against Pseudomonas aeruginosa. Further, the MIC against Klebsiella pneumoniae and with Pseudomonas aeruginosa was 5.5 µM (≈ 12.5 µg/mL) throughout. The result in the assay with Lipopolysaccharide (LPS) [1], in the assay with Lipopolysaccharide (LPS) [2], with Lipopolysaccharide (LPS) [5], with Lipopolysaccharide (LPS) [6], in the assay on Lipopolysaccharide (LPS) [7] and with Lipopolysaccharide (LPS) [8] was Active. Besides, the result in the assay with Lipopolysaccharide (LPS) [9], in the assay with Lipopolysaccharide (LPS) [10], with Lipopolysaccharide (LPS) [11] and in the assay with Lipopolysaccharide (LPS) [12] was Active. In addition, the values for the Activity with Lipopolysaccharide (LPS) [3] and in the assay with Lipopolysaccharide (LPS) [4] were 89% and 29%, respectively.
`CC(=O)NCC(=O)N[C@@H](Cc1ccccc1)C(=O)N1Cc2ccccc2C[C@H]1C(=O)N1CC2CCCCC2[C@@H]1C(=O)NCC(=O)N[C@H](CCCN)C(=O)N1Cc2ccccc2C[C@@H]1C(=O)N1CC2CCCCC2[C@H]1C(=O)NCC(=O)N[C@H](Cc1ccccc1)C(=O)N1Cc2ccccc2C[C@@H]1C(=O)N1CC2CCCCC2[C@@H]1C(=O)NCC(=O)N[C@H](CCCN)C(=O)N1Cc2ccccc2C[C@@H]1C(=O)N[C@H](CCCN)C(=O)N[C@H](CCCN)C(=O)N[C@H](CCCN)C(=O)N[C@H](CCCN)C(N)=O` (stereo partly drawn) (Ac-GF[Tic][X1]G[dOrn][dTic][Pro(3ξ,4ξ-(CH2)4)]G[dF][dTic][X1]G[dOrn][dTic][dOrn][dOrn][dOrn][dOrn]-NH2): the minimum bactericidal concentration (MBC) in the assay on Klebsiella pneumoniae and against Pseudomonas aeruginosa was 21 µM (≈ 49.5 µg/mL) each time. Moreover, the MIC against Klebsiella pneumoniae and against Pseudomonas aeruginosa was 21 µM (≈ 49.5 µg/mL) throughout. Besides, the result with Lipopolysaccharide (LPS) [1], in the assay with Lipopolysaccharide (LPS) [2], in the assay with Lipopolysaccharide (LPS) [5], with Lipopolysaccharide (LPS) [6], with Lipopolysaccharide (LPS) [7] and with Lipopolysaccharide (LPS) [8] was Active. Further, the outcome in the assay on Lipopolysaccharide (LPS) [9], in the assay on Lipopolysaccharide (LPS) [10], in the assay on Lipopolysaccharide (LPS) [11] and in the assay with Lipopolysaccharide (LPS) [12] was Active. Moreover, the Activity in the assay on Lipopolysaccharide (LPS) [3] is 93%; in the assay on Lipopolysaccharide (LPS) [4], 36%.
With `CC(=O)NCC(=O)N[C@@H](Cc1ccc([N+](=O)[O-])cc1)C(=O)N1Cc2ccccc2C[C@H]1C(=O)N1CC2CCCCC2[C@H]1C(=O)NCC(=O)N[C@@H](CCCCN)C(=O)N1Cc2ccccc2C[C@H]1C(=O)N1CC2CCCCC2[C@H]1C(=O)NCC(=O)N[C@@H](Cc1ccc([N+](=O)[O-])cc1)C(=O)N1Cc2ccccc2C[C@H]1C(=O)N1CC2CCCCC2[C@H]1C(=O)NCC(=O)N[C@@H](CCCCN)C(=O)N1Cc2ccccc2C[C@H]1C(=O)N[C@@H](CCCCN)C(=O)N[C@@H](CCCCN)C(=O)N[C@@H](CCCCN)C(=O)N[C@@H](CCCCN)C(N)=O` (stereo partly drawn) (Ac-G[Phe(4-NO2)][Tic][Pro(3ξ,4ξ-(CH2)4)]GK[Tic][Pro(3ξ,4ξ-(CH2)4)]G[Phe(4-NO2)][Tic][Pro(3ξ,4ξ-(CH2)4)]GK[Tic]KKKK-NH2), the results for the MBC against Klebsiella pneumoniae and in the assay with Pseudomonas aeruginosa were 19.6 µM (≈ 49.6 µg/mL) and 39.1 µM (≈ 99 µg/mL), respectively. The minimal inhibitory concentration (MIC) against Klebsiella pneumoniae and in the assay with Pseudomonas aeruginosa was 19.6 µM (≈ 49.6 µg/mL) in each case. The outcome in the assay on Lipopolysaccharide (LPS) [1], in the assay on Lipopolysaccharide (LPS) [2], in the assay on Lipopolysaccharide (LPS) [7], in the assay with Lipopolysaccharide (LPS) [8], with Lipopolysaccharide (LPS) [9] and in the assay with Lipopolysaccharide (LPS) [10] was Active. The outcome with Lipopolysaccharide (LPS) [11] and in the assay with Lipopolysaccharide (LPS) [12] was Active.
Consider `CC(=O)NCCC(=O)N[C@@H](Cc1ccccc1)C(=O)N1Cc2ccccc2C[C@H]1C(=O)N1CC2CCCCC2[C@H]1C(=O)NCCC(=O)N[C@@H](CCCCN)C(=O)N1Cc2ccccc2C[C@H]1C(=O)N1CC2CCCCC2[C@H]1C(=O)NCCC(=O)N[C@@H](Cc1ccccc1)C(=O)N1Cc2ccccc2C[C@H]1C(=O)N1CC2CCCCC2[C@H]1C(=O)NCCC(=O)N[C@@H](CCCCN)C(=O)N1Cc2ccccc2C[C@H]1C(=O)N[C@@H](CCCCN)C(=O)N[C@@H](CCCCN)C(=O)N[C@@H](CCCCN)C(=O)N[C@@H](CCCCN)C(N)=O` (stereo partly drawn) (Ac-[βAla]F[Tic][Pro(3ξ,4ξ-(CH2)4)][βAla]K[Tic][Pro(3ξ,4ξ-(CH2)4)][βAla]F[Tic][Pro(3ξ,4ξ-(CH2)4)][βAla]K[Tic]KKKK-NH2), for which the MBC in the assay on Klebsiella pneumoniae and in the assay on Pseudomonas aeruginosa was 40 µM (≈ 99.9 µg/mL) throughout. In addition, the minimum inhibitory concentration (MIC) against Klebsiella pneumoniae and in the assay on Pseudomonas aeruginosa was 40 µM (≈ 99.9 µg/mL) throughout. In addition, the result with Lipopolysaccharide (LPS) [1], in the assay on Lipopolysaccharide (LPS) [2], in the assay with Lipopolysaccharide (LPS) [7], with Lipopolysaccharide (LPS) [8], in the assay on Lipopolysaccharide (LPS) [9] and in the assay on Lipopolysaccharide (LPS) [10] was Active. Moreover, the result in the assay on Lipopolysaccharide (LPS) [11] and with Lipopolysaccharide (LPS) [12] was Active.

By MBC is commonly meant the lowest tested concentration that kills the bacteria rather than only halting them. High values mean weaker bactericidal potency, low ones greater bactericidal potency. Broadly, the MIC is the lowest concentration that inhibits growth of the organism. A high value points to a need for much substance.

Values taken from ChEMBL document CHEMBL3351559, “Spectroscopic investigations of the binding mechanisms between antimicrobial peptides and membrane models of Pseudomonas aeruginosa and Klebsiella pneumoniae” (2014).
